pIC50: −log10 of the molar value.
How the values were obtained:
[1] = target: T1, Melanin-concentrating hormone receptor 1 (Homo sapiens, UniProt Q99705); experiment: Displacement of [125I]MCH from human MCHR1 expressed in HEK293 cells; format: cell-based
[2] = Metabolic stability assessed as intrinsic clearance in human liver microsomes; format: ADME, Microsome
[3] = target: T1, Melanin-concentrating hormone receptor 1; experiment: Antagonist activity at human MCHR1 expressed in HEK293 cells assessed as [35S]GTP-gamma-S accumulation; format: functional, cell-based
[4] = Half life in C57BL/6J mouse plasma at 20 umol/kg, iv and 20 umol/kg, po; format: ADME, organism-based
Mus musculus = experiment: Cmax in C57BL/6J mouse brain at 20 umol/kg, iv and 20 umol/kg, po; format: ADME, organism-based; details: in vivo
[5] = Oral bioavailability in C57BL/6J mouse at 20 umol/kg; format: ADME, organism-based; details: in vivo
[6] = Volume of distribution at steady state in C57BL/6J mouse at 20 umol/kg, iv and 20 umol/kg, po; format: ADME, organism-based; details: in vivo, read-out: Vdss
[7] = Fraction unbound in C57BL/6J mouse plasma; format: ADME, cell-free
[8] = Tmax in C57BL/6J mouse brain at 20 umol/kg, iv and 20 umol/kg, po; format: ADME, organism-based
[9] = Clearance in C57BL/6J mouse at 20 umol/kg, iv and 20 umol/kg, po; format: ADME, organism-based; details: in vivo
[10] = Ratio of Cmax in brain to plasma in C57BL/6J mouse at 20 umol/kg, iv and 20 umol/kg, po; format: ADME, organism-based; details: read-out: BPR
[11] = Tmax in C57BL/6J mouse plasma at 20 umol/kg, iv and 20 umol/kg, po; format: ADME, organism-based
[12] = Cmax in C57BL/6J mouse plasma at 20 umol/kg, iv and 20 umol/kg, po; format: ADME, organism-based

T1 sequence (Q99705 whole entry): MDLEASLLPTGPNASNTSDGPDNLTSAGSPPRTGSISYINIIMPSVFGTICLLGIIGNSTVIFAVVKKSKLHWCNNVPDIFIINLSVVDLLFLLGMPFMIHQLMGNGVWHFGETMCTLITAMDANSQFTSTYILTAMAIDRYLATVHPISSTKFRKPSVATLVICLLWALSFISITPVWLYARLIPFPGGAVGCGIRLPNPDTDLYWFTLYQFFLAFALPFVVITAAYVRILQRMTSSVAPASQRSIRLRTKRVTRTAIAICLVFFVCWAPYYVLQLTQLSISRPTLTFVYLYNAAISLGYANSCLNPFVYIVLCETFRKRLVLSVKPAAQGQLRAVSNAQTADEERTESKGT

Row | pIC50 [1] | microsomal CLint [2] | other results | Compound
1 | 6.97 | – | – | COc1ccc2nc(NCCCNC(=O)c3ccsc3)cc(C)c2c1
2 | 7.48 | < 12 µL/min/mg | pIC50 [3]: 6.93 | COc1ccc2c(C)cc(N[C@H]3CC[C@H](NCc4cn(C)c5cc(C#N)ccc45)C3)nc2c1
3 | 7.82 | 64 µL/min/mg | – | COc1ccc2c(C)cc(N[C@H]3CCC[C@H](NCc4cccc(OC(F)(F)F)c4)C3)nc2c1
4 | 8.30 | 12 µL/min/mg | pIC50 [3]: 7.46 | COc1ccc2c(C)cc(N[C@H]3CC[C@H](NCc4cn(C)c5ccc(OC(F)F)cc45)C3)nc2c1
5 | 7.17 | – | pIC50 [3]: 6.63 | c1ccc2nc(N[C@H]3CCC[C@H](NCc4ccsc4)C3)ccc2c1
6 | 7.80 | 227 µL/min/mg | – | COc1ccc2c(C)cc(N[C@H]3CCC[C@H](NCc4ccc5nsnc5c4)C3)nc2c1
7 | 5.00 | – | – | N#Cc1cc(N[C@H]2CCC[C@H](NCc3ccsc3)C2)nc2ccccc12
8 | 6.24 | – | – | Clc1ccc2nc(N[C@H]3CCC[C@H](NCc4ccsc4)C3)ccc2c1
9 | 6.92 | – | – | COc1ccc2nc(N[C@H]3CC[C@H](N(C)Cc4ccsc4)C3)cc(C)c2c1
10 | 7.70 | < 12 µL/min/mg | pIC50 [3]: 6.90 | COc1ccc2c(C)cc(N[C@H]3CC[C@H](NCc4cn(C)c5c(C#N)cccc45)C3)nc2c1
11 | 7.10 | 26 µL/min/mg | – | COc1ccc2c(C)cc(N[C@H]3CC[C@H](NCc4cn(C)c5ccc(OCc6ccccc6)cc45)C3)nc2c1
12 | 7.66 | 500 µL/min/mg | – | COc1ccc2c(C)cc(N[C@H]3CCC[C@H](NCc4cncc5ccccc45)C3)nc2c1
13 | 7.21 | – | – | COc1ccc2nc(N[C@H]3CC[C@H](NCc4ccsc4)C3)cc(C)c2c1
14 | 5.52 | – | – | COc1ccc2nc(NCC3CCCN(Cc4ccsc4)C3)cc(C)c2c1 (stereo not drawn)
15 | – | – | pIC50 [3]: 7.05 | COc1cc(N[C@H]2CCC[C@H](NCc3ccsc3)C2)nc2ccc(F)cc12
16 | 5.32 | 68 µL/min/mg | – | FC(F)(F)c1cc(N[C@H]2CCC[C@H](NCc3ccsc3)C2)nc2ccccc12
17 | 7.54 | 20 µL/min/mg | half-life [4]: 8.6 h; Cmax (Mus musculus): 0.5 µmol/kg; pIC50 [3]: 7.08; bioavailability [5]: 100%; Vd [6]: 7.6 L/kg; fraction unbound [7]: 0.065; Tmax [8]: 0.26 h; clearance [9]: 15 mL/min/kg; Kp [10]: 0.13; Tmax [11]: 24 h; Cmax [12]: 3.78 µM | COc1ccc2c(C)cc(N[C@H]3CC[C@H](NCc4cn(C)c5cccnc45)C3)nc2c1
18 | 6.75 | – | – | COc1ccc2c(C)cc(N[C@H]3CCC[C@H](NCc4cn(C)nc4C)C3)nc2c1
19 | 5.29 | 15 µL/min/mg | – | Clc1cccc2ccc(N[C@H]3CCC[C@H](NCc4ccsc4)C3)nc12
20 | 7.24 | 52 µL/min/mg | – | COc1ccc2c(C)cc(N[C@H]3CCC[C@H](NCc4cn(C(=O)N(C)C)c5ccc(Cl)cc45)C3)nc2c1
21 | 7.30 | 269 µL/min/mg | – | COc1ccc2c(C)cc(N[C@H]3CCC[C@H](NCc4ccc(S(C)(=O)=O)cc4Cl)C3)nc2c1
22 | 7.21 | 41 µL/min/mg | – | COc1ccc2c(C)cc(N[C@H]3CCC[C@H](NCc4cn(C)c5ccc(Br)cc45)C3)nc2c1
23 | 6.64 | – | – | COc1cc(N[C@H]2CCC[C@H](NCc3ccsc3)C2)nc2ccc(OC(C)C)cc12
24 | 7.55 | – | – | COc1ccc(Br)c(CN[C@H]2CCC[C@H](Nc3cc(C)c4ccc(OC)cc4n3)C2)c1
25 | 7.05 | – | – | COc1ccc2c(C)cc(N[C@H]3CCC[C@H](NCc4cnccn4)C3)nc2c1

Row | pIC50 [1] | microsomal CLint [2] | other results | Compound
26 | 5.67 | – | – | COc1ccc2nc(N3CCC(NCc4ccsc4)CC3)cc(C)c2c1
27 | 7.89 | 59 µL/min/mg | – | COc1ccc2c(C)cc(N[C@H]3CCC[C@H](NCc4ccc(Cl)c(Cl)c4)C3)nc2c1
28 | 5.44 | – | – | COc1ccc2nc(NCCNCc3ccsc3)cc(C)c2c1
29 | 7.24 | 295 µL/min/mg | pIC50 [3]: 7.60 | COc1ccc2nc(N[C@H]3CCC[C@H](NCc4ccsc4)C3)ccc2c1
30 | 6.07 | – | – | CN(C)c1ccc2nc(N[C@H]3CCC[C@H](NCc4ccsc4)C3)ccc2c1
31 | 6.43 | – | – | COc1ccc2nc(N[C@H]3C[C@H]4C[C@@H]3[C@@H](NCc3ccsc3)C4)cc(C)c2c1
32 | 8.00 | – | – | COc1ccc2c(C)cc(N[C@H]3CCC[C@H](NCc4cccc5nsnc45)C3)nc2c1
33 | 5.64 | – | – | COc1ccc2nc(N(C)[C@H]3CC[C@H](NCc4ccsc4)C3)cc(C)c2c1
34 | 7.54 | 30 µL/min/mg | pIC50 [3]: 7.01 | CN(C)c1cc(N[C@H]2CCC[C@H](NCc3ccsc3)C2)nc2ccccc12
35 | 6.39 | – | – | COc1ccc2nc(N[C@@H]3CCC[C@@H](NCc4ccsc4)C3)cc(C)c2c1
36 | 7.41 | < 12 µL/min/mg | – | COc1ccc2c(C)cc(N[C@H]3CC[C@H](NCc4cn(C)c5ccc(C#N)cc45)C3)nc2c1
37 | 8.15 | 60 µL/min/mg | pIC50 [3]: 7.23 | Cc1cc(N[C@H]2CCC[C@H](NCc3ccsc3)C2)nc2ccccc12
38 | 8.05 | – | pIC50 [3]: 8.10 | COc1cc(N[C@H]2CCC[C@H](NCc3ccsc3)C2)nc2ccccc12
39 | 5.86 | – | – | COc1ccc2nc(N[C@H]3CCC[C@H](NCc4ccsc4)C3)c(C)cc2c1
40 | 8.52 | – | – | COc1ccc2nc(N[C@H]3CCC[C@H](NCc4ccsc4)C3)cc(C)c2c1
41 | < 4.48 | – | – | COc1ccc2nc(NCCCCNCc3ccsc3)cc(C)c2c1
42 | 7.15 | 12 µL/min/mg | – | COc1ccc2c(C)cc(N[C@H]3CC[C@H](NCc4cn(C)c5c4ccc4cccnc45)C3)nc2c1
43 | 8.05 | < 12 µL/min/mg | pIC50 [3]: 7.07 | COc1ccc2c(C)cc(N[C@H]3CC[C@H](NCc4cn(C)c5ccccc45)C3)nc2c1
44 | 5.60 | – | – | CC(=O)N(C)c1ccc2nc(N[C@H]3CCC[C@H](NCc4ccsc4)C3)ccc2c1
45 | 7.82 | – | – | COc1ccc2nc(NCCCNCc3ccsc3)cc(C)c2c1
46 | 7.46 | – | – | COc1ccc2nc(N[C@H]3C[C@@H]4C[C@H]3[C@@H](NCc3ccsc3)C4)cc(C)c2c1
47 | 7.27 | 38 µL/min/mg | pIC50 [3]: 7.38 | COc1cccc2nc(N[C@H]3CCC[C@H](NCc4ccsc4)C3)ccc12
48 | 5.30 | – | – | COc1ccc2nc(N[C@@H]3C[C@@H]4C[C@H]3[C@H](NCc3ccsc3)C4)cc(C)c2c1
49 | 10.00 | 32 µL/min/mg | pIC50 [3]: 9.00 | COc1ccc2c(C)cc(N[C@H]3CCC[C@H](NCc4ccsc4)C3)nc2c1

Source: ChEMBL document CHEMBL1140011, “Discovery of cyclopentane- and cyclohexane-trans-1,3-diamines as potent melanin-concentrating hormone receptor 1 antagonists” (Bioorg Med Chem Lett, 2007)
